In PMC4864329, “In vitro and in vivo efficacy, toxicity, bio-distribution and resistance selection of a novel antibacterial drug candidate” (Scientific Reports, 2016):
Several values for one entry are separate records, joined by “and”; a condition that tells them apart may be missing. Equal entries are not always repeated.

Columns and labels:
[1] = tested on: Pseudomonas aeruginosa clinical isolates; assay: MIC by standard microdilution, clinical isolates of Pseudomonas aeruginosa; type: cell-based
Method: Minimum inhibitory concentrations (MICs) of SET-M33L were determined against 76 clinical isolates of Pseudomonas aeruginosa and 73 clinical isolates of Klebsiella pneumoniae. The isolates were selected on the basis of their resistance phenotypes and major antibiotic resistance determinants, including resistance to colistin and carriage of carbapenemase-encoding genes (Table 1 and supplemental Tables S1 and S2).
MIC values were determined against a large collection of clinical isolates. Most isolates were collected during routine susceptibility testing procedures at the Clinical Microbiology Unit of Careggi University Hospital in Florence, while specific isolates were selected according to their phenotype or genotype (e.g. carriage of carbapenemase-encoding genes, inclusion in epidemic bacterial clones, resistance to colistin) from a collection of isolates already available at Department of Medical Biotechnologies, University of Siena. Detailed features of each strain, including relevant resistance phenotypes and genotypes were reported in supplemental Tables S1 and S2. MICs were determined in triplicate using a standard microdilution assay according to the guidelines of the Clinical and Laboratory Standards Institute[34]. SET-M33L was assayed using concentrations in the range 0.09–11.2 μM (0.5–64 μg/mL); testing was performed using a bacterial inoculum of 5 × 10^4 CFU/well prepared in cation-supplemented Mueller-Hinton broth (MHB) (Becton Dickinson, Franklin Lakes, NJ, USA) in a final volume of 100 μl. Results were recorded after 18–20 h of incubation at 35 °C.

[2] = tested on: K. pneumoniae strain KKBO-1; assay: In vitro selection of resistant mutants on peptide-containing MHB agarose; type: cell-based, Klebsiella pneumoniae; conditions: KKBO-1, same experimental conditions
Method: (§1) Tests were performed by plating cells on SET-M33L- or colistin-containing MHB.
Selection was performed on an MHB-based selection medium containing 1% low electro-osmosis agarose as solidifying agent and 11.2 μM SET-M33L (64 μg/mL). Agarose was preferred to agar as solidifying agent due to the observed loss of antimicrobial activity of SET-M33L in selection media solidified with the latter, possibly due to the charged nature of agar. Klebsiella pneumoniae KKBO-1 strain was grown in MHB at 37 °C to OD600 0.35 and up to 5 × 10^9 colony forming units (CFU) were spread on Petri dishes containing 20 ml of the selection medium. Plates were incubated for 16–18 h at 37 °C. Colistin-containing selection medium (equimolar concentration with respect to SET-M33L) was used as control for the selection of colistin-resistant mutants. Experiments were performed in triplicate.

[3] = tested on: BALB/c mice; assay: Acute toxicity in mice, single i.v. dose; type: in vivo, mouse; conditions: for mortality: single i.v. dose 10 mg/Kg
Method: As preliminary toxicity evaluation we first compared the acute toxicity of SET-M33L and SET-M33L-PEG with that of colistin. Animals (10 BALB/c mice/group) were injected i.v. with different amounts of SET-M33L, SET-M33L-PEG or colistin, in single dose, in the range 5–40 mg/kg (Fig. 4), and were monitored for 4 days after inoculation of the peptide. […] At 40 mg/Kg SET-M33L and SET-M33L-PEG produced similar toxicity profiles with strong signs of toxicity and 90–100% mortality after 96 hours. Colistin produced strong signs of toxicity already at 10 mg/Kg: 50% mortality immediately after inoculation and 70% mortality after 24 hours. Colistin induced sudden death in 100% of mice at 20 and 40 mg/Kg.
Mice were treated by a single i.v. administration of different amounts (40, 20, 10, 5 mg/Kg) of SET-M33L, SET-M33L-PEG or colistin sulfate (Sigma-Aldrich, C4461). Signs of toxicity were checked four times a day by visual inspection. A toxicity score was assigned for the following signs: wiry coat and poor motility = mild signs; very wiry coat, abundant lachrymation and poor motility even under stimulation = manifest signs. Animals were monitored for 4 days after inoculation of the peptide. Mice were weighed every day from arrival to the last day of the experiment. Moribund animals were killed humanely to avoid unnecessary distress.

[4] = tested on: K. pneumoniae strain KKBO-1; type: cell-based, Klebsiella pneumoniae; conditions: K. pneumoniae KKBO-1
Method: as §1

colistin sulfate
MIC ([1]; isolate SI_P1, phenotype none): ≤ 0.5 µg/mL
MIC ([1]; isolate SI_P2, CARB, β/I, ESC, FQ, AG, blaVIM): 2 µg/mL
MIC ([1]; isolate SI_P3, phenotype none): 2 µg/mL
MIC ([1]; isolate SI_P4, CARB, β/I, ESC, FQ, AG): ≤ 0.5 µg/mL
MIC ([1]; isolate SI_P5, CARB, ESC, β/I, FQ, AG): ≤ 0.5 µg/mL
MIC ([1]; isolate SI_P6, phenotype none): 2 µg/mL
MIC ([1]; isolate SI_P7, CARB, β/I, ESC, FQ, AG): ≤ 0.5 µg/mL
MIC ([1]; isolate SI_P8, CARB, ESC, AG): ≤ 0.5 µg/mL
MIC ([1]; isolate SI_P9, CARB, β/I, ESC, FQ, AG): ≤ 0.5 µg/mL
MIC ([1]; isolate SI_P10, CARB, β/I, ESC, FQ, AG): ≤ 0.5 µg/mL
MIC ([1]; isolate SI_P11, CARB, β/I, ESC, FQ, AG): 2 µg/mL
MIC ([1]; isolate SI_P12, CARB, β/I, ESC, FQ): 2 µg/mL
MIC ([1]; isolate SI_P13, phenotype none): 2 µg/mL
MIC ([1]; isolate SI_P14, CARB): 2 µg/mL
MIC ([1]; isolate SI_P15, CARB, β/I, ESC, FQ, AG): ≤ 0.5 µg/mL
MIC ([1]; isolate SI_P16, CARB, β/I, ESC, FQ, AG): 2 µg/mL
MIC ([1]; isolate SI_P17, CARB, β/I, ESC, FQ, AG, blaVIM): ≤ 0.5 µg/mL
MIC ([1]; isolate SI_P18, phenotype none): 1 µg/mL
MIC ([1]; isolate SI_P19, phenotype none): 2 µg/mL
MIC ([1]; isolate SI_P20, phenotype none): ≤ 0.5 µg/mL
MIC ([1]; isolate SI_P21, FQ, AG): 1 µg/mL
MIC ([1]; isolate SI_P22, phenotype none): ≤ 0.5 µg/mL
MIC ([1]; isolate SI_P23, phenotype none): ≤ 0.5 µg/mL
MIC ([1]; isolate SI_P24, phenotype none): ≤ 0.5 µg/mL
MIC ([1]; isolate SI_P25, AG): ≤ 0.5 µg/mL
MIC ([1]; isolate SI_P26, phenotype none): ≤ 0.5 µg/mL
MIC ([1]; isolate SI_P27, CARB): ≤ 0.5 µg/mL
MIC ([1]; isolate SI_P28, phenotype none): ≤ 0.5 µg/mL
MIC ([1]; isolate SI_P29, phenotype none): ≤ 0.5 µg/mL
MIC ([1]; isolate SI_P30, phenotype none): ≤ 0.5 µg/mL
MIC ([1]; isolate SI_P31, phenotype none): ≤ 0.5 µg/mL
MIC ([1]; isolate SI_P32, phenotype none): ≤ 0.5 µg/mL
MIC ([1]; isolate SI_P33, CARB, β/I, ESC, FQ): ≤ 0.5 µg/mL
MIC ([1]; isolate SI_P34, CARB, β/I): ≤ 0.5 µg/mL
MIC ([1]; isolate SI_P35, CARB, β/I, ESC, FQ): 2 µg/mL
MIC ([1]; isolate SI_P36, CARB, AG): ≤ 0.5 µg/mL
MIC ([1]; isolate SI_P37, CARB, β/I, ESC, FQ, AG): ≤ 0.5 µg/mL
MIC ([1]; isolate SI_P38, CARB, β/I, ESC, FQ, AG, blaVIM): ≤ 0.5 µg/mL
MIC ([1]; isolate SI_P39, CARB, β/I, ESC, FQ, AG, blaVIM): ≤ 0.5 μg/mL and ≤ 0.4 μM
MIC ([1]; isolate SI_P40, phenotype none): ≤ 0.5 μg/mL and ≤ 0.4 μM
MIC ([1]; isolate SI_P41, CARB, β/I, ESC, FQ, AG): ≤ 0.5 μg/mL and ≤ 0.4 μM
MIC ([1]; isolate SI_P42, phenotype none): ≤ 0.5 μg/mL and ≤ 0.4 μM
MIC ([1]; isolate SI_P43, FQ): ≤ 0.4 μM and ≤ 0.5 μg/mL
MIC ([1]; isolate SI_P44, CARB, ESC, FQ, AG): ≤ 0.5 μg/mL and ≤ 0.4 μM
MIC ([1]; isolate SI_P45, phenotype none): ≤ 0.5 μg/mL and ≤ 0.4 μM
MIC ([1]; isolate SI_P46, phenotype none): ≤ 0.5 μg/mL and ≤ 0.4 μM
MIC ([1]; isolate SI_P47, phenotype none): ≤ 0.5 μg/mL and ≤ 0.4 μM
MIC ([1]; isolate SI_P48, phenotype none): ≤ 0.5 μg/mL and ≤ 0.4 μM
MIC ([1]; isolate SI_P49, CARB, β/I, ESC, FQ, AG): ≤ 0.5 μg/mL and ≤ 0.4 μM
MIC ([1]; isolate SI_P50, phenotype none): ≤ 0.5 μg/mL and ≤ 0.4 μM
MIC ([1]; isolate SI_P51, CARB, β/I, ESC, FQ, AG): ≤ 0.5 μg/mL and ≤ 0.4 μM
MIC ([1]; isolate SI_P52, CARB, AG): ≤ 0.5 μg/mL and ≤ 0.4 μM
MIC ([1]; isolate SI_P53, CARB, β/I, ESC, FQ): ≤ 0.5 μg/mL and ≤ 0.4 μM
MIC ([1]; isolate SI_P54, CARB, β/I, FQ, AG): ≤ 0.5 μg/mL and ≤ 0.4 μM
MIC ([1]; isolate SI_P55, phenotype none): ≤ 0.5 μg/mL and ≤ 0.4 μM
MIC ([1]; isolate SI_P56, CARB): ≤ 0.5 μg/mL and ≤ 0.4 μM
MIC ([1]; isolate SI_P57, β/I): ≤ 0.5 μg/mL and ≤ 0.4 μM
MIC ([1]; isolate SI_P58, FQ, AG): ≤ 0.5 μg/mL and ≤ 0.4 μM
MIC ([1]; isolate SI_P59, β/I, ESC): ≤ 0.5 μg/mL and ≤ 0.4 μM
MIC ([1]; isolate SI_P60, CARB, β/I, ESC, FQ, AG, blaVIM): 2 μg/mL and 1.5 μM
MIC ([1]; isolate SI_P61, CARB, β/I, ESC, FQ, AG, blaVIM): ≤ 0.5 μg/mL and ≤ 0.4 μM
MIC ([1]; isolate SI_P62, CARB, β/I, ESC, FQ, AG, blaVIM): 2 μg/mL and 1.5 μM
MIC ([1]; isolate SI_P63, CARB, β/I, ESC, FQ, AG, blaVIM): ≤ 0.5 μg/mL and ≤ 0.4 μM
MIC ([1]; isolate SI_P64, CARB, β/I, ESC, FQ, AG): ≤ 0.5 μg/mL and ≤ 0.4 μM
MIC ([1]; isolate SI_P65, CARB, β/I, ESC, FQ, AG): 2 μg/mL and 1.5 μM
MIC ([1]; isolate SI_P66, CARB, FQ): ≤ 0.5 μg/mL and ≤ 0.4 μM
MIC ([1]; isolate SI_P67, CARB, β/I, ESC, FQ, AG, blaVIM): ≤ 0.5 μg/mL and ≤ 0.4 μM
MIC ([1]; isolate SI_P68, phenotype none): ≤ 0.5 μg/mL and ≤ 0.4 μM
MIC ([1]; isolate SI_P69, CARB): 2 μg/mL and 1.5 μM
MIC ([1]; isolate SI_P70, CARB): ≤ 0.5 μg/mL and ≤ 0.4 μM
MIC ([1]; isolate SI_P71, phenotype none): ≤ 0.5 μg/mL and ≤ 0.4 μM
MIC ([1]; isolate SI_P72, FQ, AG): 2 μg/mL and 1.5 μM
MIC ([1]; isolate SI_P73, β/I): ≤ 0.5 μg/mL and ≤ 0.4 μM
MIC ([1]; isolate SI_P74, phenotype none): ≤ 0.5 μg/mL and ≤ 0.4 μM
MIC ([1]; isolate SI_P75, CARB, β/I, ESC, FQ, AG, blaIMP): 2 μg/mL and 1.5 μM
MIC ([1]; isolate SI_P76, CARB, β/I, ESC, FQ, AG, blaIMP): 1 μg/mL and 0.7 μM
times more prone to select resistant mutants than SET-M33L [2]: at least 500
mortality ([3]; after 24 hours): 70%
mortality ([3]; immediately after inoculation): 50%
sudden death ([3]; single i.v. dose 20 mg/Kg): 100%
sudden death ([3]; single i.v. dose 40 mg/Kg): 100%
MIC [4]: 0.15 µM
